Results from US20110178171A1, “COMPOUNDS FOR CANCER THERAPY” (China Medical University, priority 2010, published 2011).

Columns and labels:
LNCaP xenografts = test: Antitumor activity in vivo, LNCaP xenograft; parameters: species or system mice
Procedure: Xenograft mice as a model system to study cytotoxicity effect of isochaihulactone in vivo: the implantation of cancer cells (LNCaP) were carried out similarly to previous reports. Female congenital athymic BALB/c nude (nu/nu) mice were purchased from National Sciences Council (Taipei, Taiwan) and all procedures were performed in compliance with the standard operating procedures of the Laboratory Animal Center of China Medical University (Taichung, Taiwan). All experiments were carried out using 6-8-week old mice weighing 18-22 g. The animals were s.c. implanted with 1×10^7 cell sinto the back of mice. When the tumor reached 80-120 mm3 in volume, animals were divided randomly into control and test groups consisting of six mice per group (day 0). Daily s.c. administration of z-K8, dissolved in a vehicle of 20% Tween 80 in normal saline (v/v) was performed from days 0 to 4 far from the inoculated tumor sites (>1.5 cm). The control group was treated with vehicle only. The mice were weighed three times a week up to days 21-28 to monitor the effects and the same time the tumor volume was determined by measurement of the length (L) and width (W) of the tumor. The tumor volume at day n (TVn) was calculated as TV (mm3)=(L×W^2)/2. The relative tumor volume at day n (RTVn) versus day 0 was expressed according to the following formula: RTVn=TVn/TV0. Tumor regression (T/C(%)) in treated versus control mice was calculated using: T/C(%)=(mean RTV of treated group)/(mean RTV of control group)×100. Xenograft tumors as well as other vital organs of treated and control. The results are shown in Tables 6 and 7 and FIGS. 6 and 7.
(§1) Assays were carried out to examine the inhibition of human xenografts growth in vivo by isochaihulactone. Briefly, LNCaP tumor-bearing mice were administered s.c. with vehicle control, 30 mg/kg E-K8, and Z-K8 respectively on days 0-4 for 5 days. The volumes of the tumors were measured. […] Scale bars, […]. Data represent means W S.D. of tumor volume at each time
as §1, with “Z-K8. Again,” for “isochaihulactone. Briefly,”, “Z-K8 15” for “30”, “mg/kg” for “mg/kg E-K8, and Z-K8 respectively”, “time point.” for “time”

cleaved caspase-3 = test: Immunohistochemical staining of xenograft tumors, cleaved caspase-3; assay type: in vivo; details: mice treated with 30 mg/kg (FIG. 8A)
Procedure: Mice xenograft tissue samples were fixed in 10% formalin and embedded in paraffin. After routine rehydration, antigen retrieval and blocking, the sections were incubated in the primary antibody at 4° C. overnight. The primary antibody was recognized by the biotinylated secondary antibody and visualized by vectastain avidin-biotin complex peroxidase system (ABC kit) as well as peroxidase substrate 3,3′-diaminobenzidine kit (DAB kit).
Immunohistochemical staining was conducted using a cleaved caspase-3-specific antibody. […] Similar staining was carried our using an AR-specific antibody.

PSA = test: RT-PCR analysis of PSA expression; assay type: cell-based; details: human cancer cells, 0.5 μM to 2 μM, 24 h, dose-dependent (FIG. 3A)
Procedure: Total RNA from LNCaP, PC3, 3T3 cells was isolated as described above. cDNA was synthesized by reverse transcription of 2 μg of total RNA using oligo(dT)12-18 and SuperScript II RNA reverse transcriptase (Invitrogen). The cDNA was then used as the template to amplify the corresponding DNA fragments by PCR using two sets of synthetic oligonucleotide primers. DNA amplification was performed by PCR with the Thermocycler 2400 (PerkinElmer Life and Analytical Sciences, Boston, Mass.) using the following parameters: 35 cycles of denaturing at 95° C. for 1 min, annealing at 60° C. for 1 min, and extension at 72° C. for 2 min. Primers used for the AR PCR amplifications are (F): 5′-ATGGTGAGCAGAGTGCCCTA-3′ (SEQ ID NO: 1) (R): 5′-GTGGTGCTGGAAGCCTCTCCT-3′ (SEQ ID NO: 2) PSA (F) 5′-GGTGACCAAGTTCATGCTGTG-3′ (SEQ ID NO: 3) (R) 5′-GTGTCCTTGATCCACTTCCG-3′ (SEQ ID NO: 4) products were separated on 2% agarose gels, stained with ethidium bromide, and visualized using the Fluor Chem imaging system (Alpha InnoTech, San Leandro, Calif.), and levels of glyceraldehyde-3-phosphate dehydrogenase were used as the control.
RT-PCR was conducted to examine the effect of Z-K8 on several human cancer cells. Briefly, the cells were treated with Z-K8 (0.5 μM to 2 μM) or Luteolin (as a positive control) for 24 h. […]

caspase-3 = test: Caspase-3 activity for apoptosis detection (Caspase-Glo); assay type: cell-based, human; details: LNCaP cells, 24 h
Procedure: In General, drug can cause tumor apoptosis mediated activate caspase-3 leading to release fluoresce dye to detect by machine. Caspase-3 activity was measured using testis supernatants with the Caspase-Glo Assay System (Promega, Madison, Wis.) according to the manufacturer's instructions. Briefly, 50 μl of the Caspase-Glo buffer was added to 50 μl of tissue supernatants in a 96-well plate and incubated at room temperature for 60 minutes. Luminescence was measured using a Biotek synergy microplate reader (Biotek, Winooski, Vt.). Background activity levels, based on measurements in homogenization buffer only, were measured and subtracted from values in the testis tissue supernatants. All values were normalized to total protein content. Standard curves were used to determine the linearity of the responses.
Assays were carried out to examine whether K8 (Isochaihulactone) increases LNCaP cells caspase-3 activity which leads to tumor cell apoptosis. Briefly, LNCaP cells were treated with different concentrations of Z-K8 (0.25 to 4 μM) for 24 h. […] Thus, Z-K8 can be used in the treatment of prostate cancer.

[1] = 30 mg/kg s.c. days 0-4, day 1 after administration
[2] = 30 mg/kg s.c. days 0-4, day 4 after administration
[3] = 30 mg/kg s.c. days 0-4, day 7 after administration
[4] = 30 mg/kg s.c. days 0-4, day 10 after administration
[5] = 30 mg/kg s.c. days 0-4, day 13 after administration
[6] = 30 mg/kg s.c. days 0-4, day 16 after administration
[7] = 30 mg/kg s.c. days 0-4, day 19 after administration

Structure (SMILES): COc1cc(/C=C2\C(=O)OCC2Cc2ccc3c(c2)OCO3)cc(OC)c1OC (racemic) [Z-K8, Racemic (Z)-β-(3′,4′-Methylenedioxybenzyl)-α-(3′,4′,5′-trimethoxybenzylidene)-γ-butyrolactone]
- Relative tumor volume (LNCaP xenografts; 15 mg/kg s.c. days 0-4, day 1 after administration): 1
- Relative tumor volume (LNCaP xenografts; 15 mg/kg s.c. days 0-4, day 4 after administration): 1.59
- Relative tumor volume (LNCaP xenografts; 15 mg/kg s.c. days 0-4, day 7 after administration): 1.91
- Relative tumor volume (LNCaP xenografts; 15 mg/kg s.c. days 0-4, day 10 after administration): 1.94
- Relative tumor volume (LNCaP xenografts; 15 mg/kg s.c. days 0-4, day 13 after administration): 2.13
- Relative tumor volume (LNCaP xenografts; 15 mg/kg s.c. days 0-4, day 16 after administration): 1.79
- Relative tumor volume (LNCaP xenografts; 15 mg/kg s.c. days 0-4, day 19 after administration): 2.00
- Relative tumor volume (LNCaP xenografts; 15 mg/kg s.c. days 0-4, day 21 after administration): 2.23
- Relative tumor volume (LNCaP xenografts; [1]): 1
- Tumor growth volume (mm^3) (LNCaP xenografts; [1]): 0 mm^3
- Relative tumor volume (LNCaP xenografts; [2]): 1.11
- Tumor growth volume (mm^3) (LNCaP xenografts; [2]): 0 mm^3
- Relative tumor volume (LNCaP xenografts; [3]): 1.12
- Tumor growth volume (mm^3) (LNCaP xenografts; [3]): 90 mm^3
- Relative tumor volume (LNCaP xenografts; [4]): 1.20
- Tumor growth volume (mm^3) (LNCaP xenografts; [4]): 202.5 mm^3
- Relative tumor volume (LNCaP xenografts; [5]): 1.23
- Tumor growth volume (mm^3) (LNCaP xenografts; [5]): 260 mm^3
- Relative tumor volume (LNCaP xenografts; [6]): 1.47
- Tumor growth volume (mm^3) (LNCaP xenografts; [6]): 255 mm^3
- Relative tumor volume (LNCaP xenografts; [7]): 1.23
- Tumor growth volume (mm^3) (LNCaP xenografts; [7]): 200 mm^3
- Relative tumor volume (LNCaP xenografts; 30 mg/kg s.c. days 0-4, day 21 after administration): 1.85
- Tumor growth volume (mm^3) (LNCaP xenografts; 30 mg/kg s.c. days 0-4, day 22 after administration): 225 mm^3
- Tumor growth volume (mm^3) (LNCaP xenografts; 30 mg/kg s.c. days 0-4, day 25 after administration): 375 mm^3
- Tumor growth volume (mm^3) (LNCaP xenografts; 30 mg/kg s.c. days 0-4, day 28 after administration): 435 mm^3
- Tumor growth volume (mm^3) (LNCaP xenografts; 30 mg/kg s.c. days 0-4, day 31 after administration): 633.5 mm^3
- tumor growth inhibition, in words (LNCaP xenografts; LNCaP tumor-bearing mice, 30 mg/kg s.c. days 0-4 (FIG. 6)): better tumor growth inhibition than E-form K8
- expression of cleaved caspase-3 in tumors (IHC) versus control (cleaved caspase-3): increased more
- PSA expression (RT-PCR) (PSA): down regulated
- Caspase-3 Relative activity (caspase-3; 0.25 μM): 1.347
- Caspase-3 Relative activity (caspase-3; 0.5 μM): 1.274
- Caspase-3 Relative activity (caspase-3; 1 μM): 1.784
- Caspase-3 Relative activity (caspase-3; 2 μM): 2.399
- Caspase-3 Relative activity (caspase-3; 4 μM): 6.604
